The numbers were not newly measured in patent EP1156371A2, “Replenishing method of planographic printing plate developer” (FUJI PHOTO FILM CO., LTD., priority 2000, dated 2001), which cites them from elsewhere.

A word on the pKa: it is the negative logarithm of the acid dissociation constant.

The conditions of this series: dissociation constant of weak acid, aqueous solution.
Take `CC(P(=O)(O)O)P(=O)(O)O` [1,1-ethylidene diphosphonic acid]: the pKa is recorded as 11.54. As for `Oc1ccc(O)c(O)c1` [1,2,4-trihydroxybenzene], the pKa was 11.82. Consider `CC(O)(P(=O)(O)O)P(=O)(O)O` [1-hydroxy 1-ethylidene diphosphonate], for which the pKa was 11.52. For the compound `OCC(F)(F)C(F)F` [2,2,3,3-tetrafluoropropanol-1], the pKa was 12.74. Turning to `CCC(C)=NO` [2-butanone oxime], the pKa is on record as 12.45.

With `ON=Cc1ccccc1O` [2-hydroxybenzaldehyde oxime], the pKa was 12.10.

As to `O=C(O)c1ccc(O)c(O)c1` [3,4-duhydroxybenzoic acid], the pKa is 11.94. On to `O=C(O)c1cc2ccccc2cc1O` [3-hydroxy-2-naphthoic acid], for which the pKa is reported as 12.84. Take `CC(=NO)c1ccccc1` [acetophenone oxime]: the pKa is listed as 11.35. `CC(C)=NO` [acetoxime]: the pKa was 12.42. In the case of `Nc1ncnc2c1ncn2[C@@H]1O[C@H](CO)[C@@H](O)[C@H]1O` [adenosine], the pKa is recorded as 12.56. On to `O=C1CC(=O)NC(=O)N1` [barbituric acid], for which the pKa is 12.5. Take `c1ccc2[nH]cnc2c1` [benzimidazole]: the pKa is reported as 12.86.

For the compound `Oc1ccccc1O` [catechol], the pKa is given as 12.6. On to `CC(=NO)C(C)=NO` [dimethyl glyoxime], for which the pKa is 11.9. With `NC(=N\O)/C(N)=N/O` [ethanediamide dioxime], the pKa is reported as 11.37. As for `Oc1ccc(O)cc1` [hydroquinone], the pKa is 11.56. In the case of `OC[C@H]1O[C@@H](n2cnc3c(O)ncnc32)[C@H](O)[C@@H]1O` [inosine], the pKa is given as 12.5. As for `CC(C)(P(=O)(O)O)P(=O)(O)O` [isopropylidene diphopshonic acid], the pKa is 12.10. In the case of `Cc1cccc(O)c1` [m-cresol], the pKa was 10.09. For the compound `Cc1ccccc1O` [o-cresol], the pKa is given as 10.33.

For the compound `O=Cc1ccccn1` [pyridine-2-aldehyde], the pKa is recorded as 12.68. `O=Cc1ccncc1` [pyridine-4-aldehyde]: the pKa is on record as 12.05.

On to `Oc1cccc(O)c1O` [pyrogallol], for which the pKa is listed as 11.34. As to `Oc1cccc(O)c1` [resorcinol], the pKa is 11.27. As for `O=C(O)c1cc(S(=O)(=O)O)ccc1O` [sulfosalicylic acid], the pKa is 11.7. Turning to `NC(=S)c1ccccc1` [thiobenzamide], the pKa is 12.8. With picoline thioamide, the pKa is 12.55.
